± gives the expanded uncertainty stated by the source.
Test: xn = mol fraction of the nth substance listed
Conditions: Liquid, Vibrating tube method

With `CCCCCCCCCCC` [undecane] + CCCCCCC the mass density (342.97 K, 1001 kPa, x2 = 0.9511) was 645.7 ± 0.3 kg/m3, the mass density (342.97 K, 2000 kPa, x2 = 0.9511) was 647 ± 0.3 kg/m3 and the mass density (342.97 K, 3000 kPa, x2 = 0.9511) was 648.4 ± 0.3 kg/m3. It also gave a mass density (342.97 K, 4000 kPa, x2 = 0.9511) of 649.7 ± 0.3 kg/m3, a mass density (342.97 K, 5000 kPa, x2 = 0.9511) of 650.9 ± 0.3 kg/m3 and a mass density (342.97 K, 6000 kPa, x2 = 0.9511) of 652.2 ± 0.3 kg/m3. The mass density (342.97 K, 7000 kPa, x2 = 0.9511) was 653.4 ± 0.3 kg/m3, the mass density (342.97 K, 8000 kPa, x2 = 0.9511) was 654.6 ± 0.3 kg/m3 and the mass density (342.97 K, 9000 kPa, x2 = 0.9511) was 655.8 ± 0.3 kg/m3. For the same compound, the mass density (342.97 K, 10000 kPa, x2 = 0.9511) was 657 ± 0.4 kg/m3, the mass density (342.97 K, 11000 kPa, x2 = 0.9511) was 658.1 ± 0.4 kg/m3 and the mass density (342.97 K, 12000 kPa, x2 = 0.9511) was 659.2 ± 0.4 kg/m3. For the same compound, the mass density (342.97 K, 13000 kPa, x2 = 0.9511) was 660.3 ± 0.4 kg/m3, the mass density (342.97 K, 14001 kPa, x2 = 0.9511) was 661.4 ± 0.4 kg/m3 and the mass density (342.97 K, 15001 kPa, x2 = 0.9511) was 662.5 ± 0.4 kg/m3. For the same compound, the mass density (342.97 K, 16000 kPa, x2 = 0.9511) was 663.5 ± 0.4 kg/m3, the mass density (342.97 K, 17001 kPa, x2 = 0.9511) was 664.5 ± 0.4 kg/m3 and the mass density (342.97 K, 18001 kPa, x2 = 0.9511) was 665.6 ± 0.4 kg/m3. For the same compound, the mass density (342.97 K, 19000 kPa, x2 = 0.9511) was 666.6 ± 0.4 kg/m3, the mass density (342.97 K, 20000 kPa, x2 = 0.9511) was 667.5 ± 0.4 kg/m3 and the mass density (342.97 K, 21001 kPa, x2 = 0.9511) was 668.5 ± 0.5 kg/m3. It also gave a mass density (342.97 K, 22000 kPa, x2 = 0.9511) of 669.4 ± 0.5 kg/m3, a mass density (342.97 K, 23001 kPa, x2 = 0.9511) of 670.4 ± 0.5 kg/m3 and a mass density (342.97 K, 24000 kPa, x2 = 0.9511) of 671.3 ± 0.5 kg/m3. For the same compound, the mass density (342.97 K, 25000 kPa, x2 = 0.9511) was 672.2 ± 0.5 kg/m3, the mass density (343.01 K, 2001 kPa, x2 = 0.5063) was 680.1 ± 0.3 kg/m3 and the mass density (343.01 K, 3000 kPa, x2 = 0.5063) was 681.2 ± 0.3 kg/m3. The mass density (343.01 K, 4000 kPa, x2 = 0.5063) was 682.3 ± 0.3 kg/m3, the mass density (343.01 K, 5000 kPa, x2 = 0.5063) was 683.4 ± 0.3 kg/m3 and the mass density (343.01 K, 6000 kPa, x2 = 0.5063) was 684.5 ± 0.3 kg/m3. For the same compound, the mass density (343.01 K, 7000 kPa, x2 = 0.5063) was 685.5 ± 0.3 kg/m3, the mass density (343.01 K, 8001 kPa, x2 = 0.5063) was 686.5 ± 0.3 kg/m3 and the mass density (343.01 K, 9000 kPa, x2 = 0.5063) was 687.6 ± 0.3 kg/m3. It also gave a mass density (343.01 K, 10000 kPa, x2 = 0.5063) of 688.6 ± 0.3 kg/m3, a mass density (343.01 K, 11000 kPa, x2 = 0.5063) of 689.5 ± 0.3 kg/m3 and a mass density (343.01 K, 12000 kPa, x2 = 0.5063) of 690.5 ± 0.3 kg/m3. It also gave a mass density (343.01 K, 13000 kPa, x2 = 0.5063) of 691.5 ± 0.4 kg/m3, a mass density (343.01 K, 14000 kPa, x2 = 0.5063) of 692.4 ± 0.4 kg/m3 and a mass density (343.01 K, 15000 kPa, x2 = 0.5063) of 693.4 ± 0.4 kg/m3. For the same compound, the mass density (343.01 K, 16000 kPa, x2 = 0.5063) was 694.3 ± 0.4 kg/m3, the mass density (343.01 K, 17001 kPa, x2 = 0.5063) was 695.2 ± 0.4 kg/m3 and the mass density (343.01 K, 18000 kPa, x2 = 0.5063) was 696.1 ± 0.4 kg/m3. For the same compound, the mass density (343.01 K, 19000 kPa, x2 = 0.5063) was 697 ± 0.4 kg/m3, the mass density (343.01 K, 20000 kPa, x2 = 0.5063) was 697.8 ± 0.4 kg/m3 and the mass density (343.01 K, 21001 kPa, x2 = 0.5063) was 698.7 ± 0.4 kg/m3. It also gave a mass density (343.01 K, 22050 kPa, x2 = 0.5063) of 699.5 ± 0.4 kg/m3, a mass density (343.01 K, 23000 kPa, x2 = 0.5063) of 700.4 ± 0.4 kg/m3 and a mass density (343.01 K, 24000 kPa, x2 = 0.5063) of 701.2 ± 0.4 kg/m3. For the same compound, the mass density (343.01 K, 25000 kPa, x2 = 0.5063) was 702 ± 0.5 kg/m3, the mass density (343.02 K, 1001 kPa, x2 = 0.05) was 701.5 ± 0.3 kg/m3 and the mass density (343.02 K, 2001 kPa, x2 = 0.05) was 702.5 ± 0.3 kg/m3. The mass density (343.02 K, 3000 kPa, x2 = 0.05) was 703.6 ± 0.3 kg/m3, the mass density (343.02 K, 4000 kPa, x2 = 0.05) was 704.6 ± 0.3 kg/m3 and the mass density (343.02 K, 5000 kPa, x2 = 0.05) was 705.5 ± 0.3 kg/m3. It also gave a mass density (343.02 K, 6000 kPa, x2 = 0.05) of 706.5 ± 0.3 kg/m3, a mass density (343.02 K, 7000 kPa, x2 = 0.05) of 707.5 ± 0.3 kg/m3 and a mass density (343.02 K, 8001 kPa, x2 = 0.05) of 708.4 ± 0.3 kg/m3. The mass density (343.02 K, 9000 kPa, x2 = 0.05) was 709.3 ± 0.3 kg/m3, the mass density (343.02 K, 10000 kPa, x2 = 0.05) was 710.2 ± 0.3 kg/m3 and the mass density (343.02 K, 11000 kPa, x2 = 0.05) was 711.1 ± 0.3 kg/m3. The mass density (343.02 K, 12000 kPa, x2 = 0.05) was 712 ± 0.3 kg/m3, the mass density (343.02 K, 13000 kPa, x2 = 0.05) was 712.9 ± 0.3 kg/m3 and the mass density (343.02 K, 14000 kPa, x2 = 0.05) was 713.8 ± 0.4 kg/m3. The mass density (343.02 K, 15000 kPa, x2 = 0.05) was 714.6 ± 0.4 kg/m3, the mass density (343.02 K, 16000 kPa, x2 = 0.05) was 715.5 ± 0.4 kg/m3 and the mass density (343.02 K, 17000 kPa, x2 = 0.05) was 716.3 ± 0.4 kg/m3. The mass density (343.02 K, 18000 kPa, x2 = 0.05) was 717.1 ± 0.4 kg/m3, the mass density (343.02 K, 19000 kPa, x2 = 0.05) was 717.9 ± 0.4 kg/m3 and the mass density (343.02 K, 20000 kPa, x2 = 0.05) was 718.7 ± 0.4 kg/m3. The mass density (343.02 K, 21000 kPa, x2 = 0.05) was 719.5 ± 0.4 kg/m3, the mass density (343.02 K, 22001 kPa, x2 = 0.05) was 720.3 ± 0.4 kg/m3 and the mass density (343.02 K, 23000 kPa, x2 = 0.05) was 721.1 ± 0.4 kg/m3. The mass density (343.02 K, 24000 kPa, x2 = 0.05) was 721.8 ± 0.4 kg/m3, the mass density (343.02 K, 25000 kPa, x2 = 0.05) was 722.6 ± 0.4 kg/m3 and the mass density (343.03 K, 1000 kPa, x2 = 0.7482) was 662.4 ± 0.3 kg/m3. It also gave a mass density (343.03 K, 2000 kPa, x2 = 0.7482) of 663.6 ± 0.3 kg/m3, a mass density (343.03 K, 3000 kPa, x2 = 0.7482) of 664.9 ± 0.3 kg/m3 and a mass density (343.03 K, 4000 kPa, x2 = 0.7482) of 666.1 ± 0.3 kg/m3. The mass density (343.03 K, 5000 kPa, x2 = 0.7482) was 667.2 ± 0.3 kg/m3, the mass density (343.03 K, 6000 kPa, x2 = 0.7482) was 668.4 ± 0.3 kg/m3 and the mass density (343.03 K, 7000 kPa, x2 = 0.7482) was 669.5 ± 0.3 kg/m3. It also gave a mass density (343.03 K, 8000 kPa, x2 = 0.7482) of 670.6 ± 0.3 kg/m3, a mass density (343.03 K, 9000 kPa, x2 = 0.7482) of 671.7 ± 0.3 kg/m3 and a mass density (343.03 K, 10000 kPa, x2 = 0.7482) of 672.8 ± 0.3 kg/m3. The mass density (343.03 K, 11000 kPa, x2 = 0.7482) was 673.9 ± 0.4 kg/m3, the mass density (343.03 K, 12000 kPa, x2 = 0.7482) was 674.9 ± 0.4 kg/m3 and the mass density (343.03 K, 13000 kPa, x2 = 0.7482) was 675.9 ± 0.4 kg/m3. For the same compound, the mass density (343.03 K, 14000 kPa, x2 = 0.7482) was 677 ± 0.4 kg/m3, the mass density (343.03 K, 15000 kPa, x2 = 0.7482) was 678 ± 0.4 kg/m3 and the mass density (343.03 K, 16000 kPa, x2 = 0.7482) was 678.9 ± 0.4 kg/m3. For the same compound, the mass density (343.03 K, 17000 kPa, x2 = 0.7482) was 679.9 ± 0.4 kg/m3, the mass density (343.03 K, 18000 kPa, x2 = 0.7482) was 680.8 ± 0.4 kg/m3 and the mass density (343.03 K, 19000 kPa, x2 = 0.7482) was 681.8 ± 0.4 kg/m3.
